Counter-ions that a name gives are not always drawn.
Assays:
[1] = target: T1, 6His-Tev-LRRK2 (1326-2527) (Homo sapiens, UniProt Q5S007); test: LRRK2 peptide substrate assay; type: biochemical; conditions: mean pIC50 of multiple test results
T1 construct: A LRRK2 cDNA encoding residues 1326-2527 was received from Dundee University; made in house; host or cells: Spodoptera frugiperda (Sf9) insect cells, baculovirus (pFB-HTb)
T1 sequence (Q5S007 1326-2527): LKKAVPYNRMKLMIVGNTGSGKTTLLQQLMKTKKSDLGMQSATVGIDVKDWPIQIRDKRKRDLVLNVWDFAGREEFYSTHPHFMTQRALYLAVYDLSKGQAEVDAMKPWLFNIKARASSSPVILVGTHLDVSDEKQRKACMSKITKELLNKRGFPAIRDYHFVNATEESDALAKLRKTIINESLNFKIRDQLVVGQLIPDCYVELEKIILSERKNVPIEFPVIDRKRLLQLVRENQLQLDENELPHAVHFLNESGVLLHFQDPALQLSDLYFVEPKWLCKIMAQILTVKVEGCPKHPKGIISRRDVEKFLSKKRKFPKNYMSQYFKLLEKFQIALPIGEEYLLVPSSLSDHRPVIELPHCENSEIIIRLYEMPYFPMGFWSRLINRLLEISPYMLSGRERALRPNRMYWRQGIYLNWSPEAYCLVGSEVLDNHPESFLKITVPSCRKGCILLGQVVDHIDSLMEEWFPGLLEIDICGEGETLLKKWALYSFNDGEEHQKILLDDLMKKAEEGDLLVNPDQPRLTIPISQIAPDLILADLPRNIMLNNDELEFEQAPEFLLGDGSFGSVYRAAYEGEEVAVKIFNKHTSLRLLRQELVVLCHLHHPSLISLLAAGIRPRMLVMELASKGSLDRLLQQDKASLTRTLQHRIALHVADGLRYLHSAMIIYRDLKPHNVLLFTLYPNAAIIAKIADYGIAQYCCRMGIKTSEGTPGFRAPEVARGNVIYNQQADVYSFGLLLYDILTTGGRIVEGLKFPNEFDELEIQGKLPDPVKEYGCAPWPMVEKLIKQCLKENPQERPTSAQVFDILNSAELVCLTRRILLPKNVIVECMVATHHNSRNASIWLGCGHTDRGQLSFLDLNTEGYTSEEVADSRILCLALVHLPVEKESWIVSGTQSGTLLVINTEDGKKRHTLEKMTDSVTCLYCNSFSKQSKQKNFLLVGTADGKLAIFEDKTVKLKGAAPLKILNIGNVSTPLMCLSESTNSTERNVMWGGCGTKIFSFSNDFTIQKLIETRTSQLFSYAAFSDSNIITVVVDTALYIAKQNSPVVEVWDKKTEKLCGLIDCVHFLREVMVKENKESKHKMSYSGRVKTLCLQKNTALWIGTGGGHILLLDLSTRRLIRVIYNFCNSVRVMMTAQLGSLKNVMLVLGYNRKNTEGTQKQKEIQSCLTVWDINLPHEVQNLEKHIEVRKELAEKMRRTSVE
Experimental: (§1) Compounds of formula (I) may be tested for in vitro kinase activity in accordance with the following assays, using the non natural, in vitro, substrates moesin and the Longer Biotin-LRRKtide. Moesin and a shorter version of the peptide were identified as substrates in Jaleel et al. (2007, Biochem J, 405: 307-317).
LRRK2 Peptide Substrate Assay
a) 100 nl of a 1:4 serial dilution of test compound with a top final assay concentration of 30 μM is added to certain wells in a low volume 384 well black plate. 100 nl of DMSO is used in certain wells as controls.
(§2) b) 3 μl enzyme solution (80 nM purified recombinant 6His-Tev-LRRK2 (1326-2527) in assay buffer: 50 mM Hepes (pH 7.2), 10 mM MgCl2, 150 mM NaCl, 5% glycerol, 0.0025% triton X-100 and 1 mM DTT) is added to certain wells. 3 μl assay buffer is added to certain wells as a 100% inhibition (no enzyme) control. c) After incubation at room temperature for 30 minutes, 3 μl substrate solution (2 μM Biotin-LRRKtide peptide substrate and ATP at Km in assay buffer) is added to each well. Plates are then incubated for a further 1-2 hours at room temperature (incubation time varies depending upon rate and linearity of reaction with differing enzyme batches). d) 6 μl detection solution (50 nM Streptavidin SureLight® APC (PerkinElmer), 4 nM Eu-W1024 labelled anti-rabbit IgG antibody (PerkinElmer), 1:500 dilution (dilution determined on a batch to batch basis) of Phospho-Ezrin (Thr567)/Radixin (Thr564)/Moesin (Thr558) Polyclonal Antibody (New England Biolabs) and 60 mM EDTA in buffer: 40 mM Hepes (pH 7.2), 150 mM NaCl, 0.03% BSA) is added to each well. Plates are then incubated for a further 2 hours at room temperature before reading on a suitable plate reader (Excitation 330 nm, emission 620 nm (Eu) and 665 nm (APC)). Data is analysed using ActivityBase software (IDBS). LRRK2 AlphaScreen Desensitised Protein Substrate Assay a) 100 nl of a 1:4 serial dilution of test compound with a top final assay concentration of 30 μM is added to certain wells in a low volume 384 well black plate. 100 nl of DMSO is used in certain wells as controls. b) 3 μl enzyme solution (80 nM purified recombinant 6His-Tev-LRRK2 (1326-2527) in assay buffer: 50 mM Hepes (pH 7.2), 10 mM MgCl2, 150 mM NaCl, 5% glycerol, 0.0025% triton X-100 and 1 mM DTT) is added to certain wells. 3 μl assay buffer is added to certain wells as a 100% inhibition (no enzyme) control. c) After incubation at room temperature for 30 minutes, 3 μl substrate solution (200 nM GST-PS-Moesin (400-577) and 2 mM ATP in assay buffer) is added to each well. Plates are then incubated for 20 minutes at room temperature. d) 6 μl detection solution (1:250 dilution of AlphaLisa Protein A Acceptor beads (PerkinElmer), 1:64 dilution of AlphaLisa Gluthathione Donor beads (PerkinElmer) and 1:600 dilution (dilution determined on a batch to batch basis) of Phospho-Ezrin (Thr567)/Radixin (Thr564)/Moesin (Thr558) Polyclonal Antibody (New England Biolabs) in a buffer: 50 mM Hepes (pH 7.5), 250 mM NaCl, 60 mM EDTA, 1% PEG and 0.01% Brij 35) is added to each well. Plates are then incubated for a further 2 hours at room temperature in the dark before reading on an EnVision™ plate reader with AlphaScreen HTS turbo option module and AlphaScreen settings. Data is analysed using ActivityBase software (IDBS). Pharmacological Data

[2] = target: T1, 6His-Tev-LRRK2 (1326-2527); test: LRRK2 AlphaScreen desensitised protein substrate assay; type: biochemical; conditions: mean pIC50 of multiple test results
Experimental: as §1, §2

[3] = Biotin-LRRKtide peptide substrate, ATP at Km, read-out: LRRK2 peptide substrate assay (pIC50) (converted)
[4] = stated as threshold, read-out: pIC50 in the LRRK2 peptide substrate assay (bounds) (converted)
[5] = GST-PS-Moesin (400-577) substrate, 2 mM ATP, read-out: LRRK2 alphascreen desensitized protein substrate assay (pIC50) (converted)
[6] = stated as threshold, read-out: pIC50 in the LRRK2 alphascreen desensitised protein substrate assay (bounds) (converted)

IC50 [1, 3] [µM] | IC50 [1, 4] [µM] | SMILES | IC50 [2, 5] [µM] | IC50 [2, 6] [µM]
0.0126 | ≤ 0.1 | Cn1cc(-c2cc(C(=O)Nc3cccnc3)c(OCc3ccccc3)cc2C(=O)N2CCOCC2)cn1 [Example 23, 5-(1-Methyl-1H-pyrazol-4-yl)-4-(4-morpholinylcarbonyl)-2-[(phenylmethyl)oxy]-N-3-pyridinylbenzamide] | 0.2 | ≤ 0.316
– | ≤ 0.1 | Cn1cc(-c2cc(C(=O)Nc3ccnnc3)c(OCc3ccccc3)cc2CN2CCOCC2)cn1 [Example 3, 5-(1-Methyl-1H-pyrazol-4-yl)-4-(4-morpholinylmethyl)-2-[(phenylmethyl)oxy]-N-4-pyridazinylbenzamide] | – | ≤ 25.1
– | ≤ 0.1 | Cn1cc(-c2cc(C(=O)Nc3cccc(Cl)c3)c(OCc3ccccc3)cc2CN2CCOCC2)cn1 [Example 50, 2-(benzyloxy)-N-(3-chlorophenyl)-5-(1-methyl-1H-pyrazol-4-yl)-4-(morpholinomethyl)benzamide, Hydrochloride] | – | –
0.0158 | ≤ 0.1 | O=C(Nc1cccnc1)c1cc(C(F)(F)F)c(C(=O)N2CCCCC2)cc1OCc1ccccc1 [Example 39, 2-[(Phenylmethyl)oxy]-4-(1-piperidinylcarbonyl)-N-3-pyridinyl-5-(trifluoromethyl)benzamide] | 0.316 | ≤ 0.316
– | ≤ 0.1 | O=C(Nc1cccnc1)c1cc(Cl)c(C(=O)N2CCC(F)(F)C2)cc1OCc1ccccc1 [Example 41, 5-Chloro-4-[(3,3-difluoro-1-pyrrolidinyl)carbonyl]-2-[(phenylmethyl)oxy]-N-3-pyridinylbenzamide] | – | ≤ 0.316
– | ≤ 1.26 | O=C(Nc1ccnnc1)c1cc(C(F)(F)F)c(C(=O)N2CCOCC2)cc1OCc1ccccc1 [Example 38, 4-(4-Morpholinylcarbonyl)-2-[(phenylmethyl)oxy]-N-4-pyridazinyl-5-(trifluoromethyl)benzamide] | – | ≤ 25.1
– | ≤ 0.1 | CN1CCN(C(=O)c2cc(OCc3ccccc3)c(C(=O)Nc3cccnn3)cc2Cl)CC1 [Example 56, 2-(benzyloxy)-5-chloro-4-(4-methylpiperazine-1-carbonyl)-N-(pyridazin-3-yl)benzamide] | – | ≤ 25.1
0.00631 | ≤ 0.01 | Cn1cc(-c2cc(C(=O)Nc3cccnc3)c(OCc3ccccc3)cc2C(=O)N2CCCCC2)cn1 [Example 31, 5-(1-Methyl-1H-pyrazol-4-yl)-2-[(phenylmethyl)oxy]-4-(1-piperidinylcarbonyl)-N-3-pyridinylbenzamide] | 0.0501 | ≤ 0.316
– | ≤ 0.1 | O=C(Nc1cccnc1)c1cc(C(F)(F)F)c(CN2CCOCC2)cc1OCc1ccccc1 [Example 33, 2-(Benzyloxy)-4-(morpholinomethyl)-N-(pyridin-3-yl)-5-(trifluoromethyl)benzamide] | – | ≤ 0.316
0.0316 | ≤ 0.1 | O=C(Nc1cccnc1)c1cc(Cl)c(C(=O)N2CCOCC2)cc1OCc1ccccc1 [Example 44, 5-Chloro-4-(4-morpholinylcarbonyl)-2-[(phenylmethyl)oxy]-N-3-pyridinylbenzamide] | 0.158 | ≤ 0.316
– | ≤ 1.26 | Cn1cc(-c2cc(OCc3ccc(F)cc3)c(C(=O)Nc3cccnc3)cc2C(=O)N2CCOCC2)cn1 [Example 28, 2-{[(4-Fluorophenyl)methyl]oxy}-4-(1-methyl-1H-pyrazol-4-yl)-5-(4-morpholinylcarbonyl)-N-3-pyridinylbenzamide] | – | ≤ 25.1
– | ≤ 0.01 | O=C(Nc1cccc(Cl)c1)c1cc(Cl)c(C(=O)N2CCOCC2)cc1OCc1ccccc1 [Example 45, 5-Chloro-N-(3-chlorophenyl)-4-(4-morpholinylcarbonyl)-2-[(phenylmethyl)oxy]benzamide] | – | ≤ 0.316
– | ≤ 0.01 | Cc1cc(OCc2ccccc2)c(C(=O)Nc2ccnnc2)cc1Br [Example 5, 5-Bromo-4-methyl-2-[(phenylmethyl)oxy]-N-4-pyridazinyl benzamide] | – | ≤ 0.316
0.01 | ≤ 0.01 | Cc1cc(C(=O)Nc2cccnc2)c(OCc2ccccc2)cc1Br [Example 9, 4-Bromo-5-methyl-2-[(phenylmethyl)oxy]-N-3-pyridinylbenzamide] | 0.126 | ≤ 0.316
0.00631 | ≤ 0.01 | Cc1cc(C(=O)Nc2ccnnc2)c(OCc2ccccc2)cc1Br [Example 10, 4-Bromo-5-methyl-2-[(phenylmethyl)oxy]-N-4-pyridazinylbenzamide] | 0.1 | ≤ 0.316
– | ≤ 0.1 | CN1CCN(C(=O)c2cc(OCc3ccccc3)c(C(=O)Nc3cccnc3)cc2Cl)CC1 [Example 54, 2-(benzyloxy)-5-chloro-4-(4-methylpiperazine-1-carbonyl)-N-(pyridin-3-yl)benzamide] | – | –
– | ≤ 0.1 | Cn1cc(-c2cc(C(=O)Nc3cccc(Cl)c3)c(OCc3ccccc3)cc2CN2CCOCC2)cn1 [Example 51, 2-(benzyloxy)-N-(3-chlorophenyl)-5-(1-methyl-1H-pyrazol-4-yl)-4-(morpholinomethyl)benzamide, Maleic acid salt] | – | –

Reference: patent US9365551B2, “2-(benzyloxy) benzamides as LRRK2 kinase inhibitors” (Glaxo Group Limited, priority 2010, dated 2016)
